The values below come from US20230109839A1, “THERAPEUTIC AGENT FOR TAUOPATHIES” (SUMITOMO PHARMA CO., LTD., priority 2020, published 2023).

The target in the first experiment is T1, human Nav1.1 (Homo sapiens, UniProt P35498).
T1 construct: host or cells: HEK293
Kind of experiment: Amplification of Nav1.1-derived voltage-gated sodium current (Nav1.1 current), automated patch clamp (Test 1). In kind it is cell-based. Conditions: Concentration for evaluation 1 μM; HEK293 cell line stably expressing human Nav1.1. Here is the method:
Test 1: Evaluation of the Amplification of Nav1.1-Derived Voltage-Gated Sodium Current (Nav1.1 Current) by Using a Cell Line Stably Expressing Human Nav1.1
(1) Preparation of Test Compound Solution
Test compounds were prepared by dissolving in DMSO at 200 times of the concentration at evaluation, and diluting the obtained solution to twice the concentration of evaluation with an extracellular fluid (135 mmol/L NaCl, 4 mmol/L KCl, 1 mmol/L MgCl2, 5 mmol/L CaCl2, 5 mmol/L Glucose, 10 mmol/L HEPES).
(2) Induction and Measurement of Nav1.1 Current
A HEK293 cell line stably expressing human Nav1.1 (cat #CYL3009, Eurofins DiscoverX Products, LLC, Human Embryonic Kidney 293) was purchased, and used in the present test. Nav1.1 current was induced by stimulating Ramp wave voltage. Detection of current which accompanied with the stimulation of voltage was carried out by a patch-clamp voltage-clamp method using HTS automated patch clamp system (SynchroPatch 768PE, Nanion Technologies GmbH, Germany). Only cells with more than 500 pA of voltage-gated sodium channel current were used for the evaluation of the activity of compounds on Nav1.1 current because there was the possibility that currents derived from endogenous voltage-gated sodium channels accounted for large proportion in cells with less than 500 pA of voltage-gated sodium channel current which was induced by stimulating Ramp wave voltage.
(3) Pharmacological Effect on Nav1.1 Current
The effect of test compounds on the amplification of Nav1.1-derived voltage-gated sodium current was evaluated by using a cell line stably expressing human Nav1.1 and HTS automated patch clamp system. In other words, test compounds were added in an extracellular fluid containing 1% DMSO, and evaluated as a change of the peak value of Nav1.1 current and the area under the curve (AUC).
(4) Method for Pharmacological Evaluation
The Nav1.1 current amplification rates of test compounds were calculated by the following formula:
Nav1.1 current amplification rate (%)=100×[the peak value of Nav1.1 current or the area under the curve after the addition of test compounds]/[the peak value of Nav1.1 current or the area under the curve before the addition of test compounds]−100
`Cc1cn(Cc2cccc3c2CCN3C(=O)Cn2nc(C3=CCC(C)CC3)ccc2=O)cn1` (centres unmarked) [Example 288]: the “Nav1.1 current amplification rate (%)” value is recorded as 115%.
The same measure, in the same setting: for `CN(c1cnc2cnn(CC(=O)Nc3ccn4ccnc4c3)c2n1)C1CCC1` [Example 685] the value was 41%.
In the case of `CC1CC=C(c2ccc(=O)n(CC(=O)Nc3ccnc(N4CCOCC4)c3F)n2)CC1` (centres unmarked) [Example 383], the “Nav1.1 current amplification rate (%)” value came to 84%.
Turning to `CCC1CC=C(c2cnc3cnn(CC(=O)Nc4ccc5ncnn5c4)c3n2)CC1` (centres unmarked) [Example 650], the “Nav1.1 current amplification rate (%)” value was 26%.
`CC1CC=C(c2cnc3cnn(CC(=O)Nc4ccc5cncnc5c4)c3n2)CC1` (centres unmarked) [Example 641]: the “Nav1.1 current amplification rate (%)” value is 361%.
As for `CC1CC=C(c2ccc(=O)n(CC(=O)Nc3ccc(C#N)nc3)n2)CC1` (centres unmarked) [Example 360], the “Nav1.1 current amplification rate (%)” value was 200%.
On the same count and under the same terms, the value for `CC1CC=C(c2ccc(=O)n(CC(=O)Nc3ccc4c(cnn4C)c3)n2)CC1` (centres unmarked) [Example 336] was 68%; that for `CN(c1cnc2cnn(CC(=O)Nc3ccc4ncncc4c3)c2n1)C1CC1` [Example 728] was 71%.
Still for that read-out and setting: the value for `CC1CC=C(c2ccc(=O)n(CC(=O)Nc3ccc4nccn4n3)n2)CC1` (centres unmarked) [Example 346] was 96%.
Still for that read-out and setting: the value for `O=C(Cn1ncc2cnc(N3CCC4(CCC4)C3)nc21)Nc1ccn2ncnc2c1` [Example 765] was 25%; that for `Cc1cc(NC(=O)Cn2ncc3ncc(N(C)C4CCCC4)nc32)cn2ncnc12` [Example 677] was 35%.
For `Cc1cc(NC(=O)Cn2nc(C3=CCC(C)CC3)ccc2=O)cc2ncnn12` (centres unmarked) [Example 352], the “Nav1.1 current amplification rate (%)” value turned out to be 155%.
Same read-out and setting: the value for `CN(c1cnc2cnn(CC(=O)N3CCc4c(-c5ccnn5C)cccc43)c2n1)C1CCC1` [Example 693] was 13%.

Still in this experiment, the particulars now being: Concentration for evaluation 3 μM; HEK293 cell line stably expressing human Nav1.1.
Regarding `CC1CC=C(c2ccc(=O)n(CC(=O)N3CC=C(c4ccccc4)CC3)n2)CC1` (centres unmarked) [Example 257], the “Nav1.1 current amplification rate (%)” value turned out to be 45%.
As to `CC(C)c1ccc(NC(=O)Cn2ncc3ncc(N(C)C4CC4)nc32)cn1` [Example 708], the “Nav1.1 current amplification rate (%)” value was 25%.
`COc1ncc(-c2cccc3c2CCN3C(=O)Cn2nc(C3=CCC(C)CC3)ccc2=O)cn1` (centres unmarked) [Example 249]: the “Nav1.1 current amplification rate (%)” value is 584%.
In the case of `Cc1nc2cc(NC(=O)Cn3nc(C4=CCC(C)CC4)ccc3=O)cnc2s1` (centres unmarked) [Example 326], the “Nav1.1 current amplification rate (%)” value stood at 132%.
On the same count and under the same terms, for `CC1CC=C(c2ccc(=O)n(CC(=O)N3CCc4c(C5CN(C6CCOC6)C5)cccc43)n2)CC1` (centres unmarked) [Example 305] the value was 314%.

The experiment is the same for the next values; noted with them: Concentration for evaluation 10 μM; HEK293 cell line stably expressing human Nav1.1.
For `CC1CC=C(c2ccc(=O)n(CC(=O)N3CCN(Cc4cccnc4)CC3)n2)CC1` (centres unmarked) [Example 393], the “Nav1.1 current amplification rate (%)” value is reported as 19%.
On to `CC1(C)CC=C(c2ccc(=O)n(CC(=O)N3CCN(c4cccnc4)CC3)n2)CC1` [Example 440], for which the “Nav1.1 current amplification rate (%)” value is 196%.
On the same count and under the same terms, the value for `O=C(Cn1nc(C2=CCC(F)(F)CC2)ccc1=O)Nc1ccn2ccnc2c1` [Example 464] was 18%; that for `COc1cc(C2=CCC(C)CC2)nn(CC(=O)N2CCc3c(N4CCOCC4)cccc32)c1=O` (centres unmarked) [Example 473] was 487%; that for `O=C(Cn1ncc2cnc(N3CCOCC3)nc21)Nc1ccn2ncnc2c1` [Example 767] was 60%.
Regarding `Cc1ccc(-c2ccc(=O)n(CC(=O)Nc3ccnnc3)n2)cc1` [Example 142], the “Nav1.1 current amplification rate (%)” value was 34%.
Still for that read-out and setting: for `CC1CC=C(c2ccc(=O)n(CC(=O)N3CCN(c4cncc(F)c4)CC3)n2)C1` (centres unmarked) [Example 484] the value was 224%; for `CC1CC2(C1)CN(c1cnc3cnn(CC(=O)Nc4ccn5ncnc5c4)c3n1)C2` [Example 638], 58%.
The same measure, in the same setting: the value for `CC1CCN(c2ccc(=O)n(CC(=O)Nc3ccc4scnc4c3)n2)CC1` [Example 87] was 255%.
Turning to `CC1CCN(c2ccc(=O)n(CC(=O)Nc3cncc(F)c3)n2)CC1` [Example 65], the “Nav1.1 current amplification rate (%)” value was 17%.
As for `COc1cc(C2=CCC(C(F)(F)F)CC2)nn(CC(=O)N2CCc3c(N4CCOCC4)cccc32)c1=O` (centres unmarked) [Example 474], the “Nav1.1 current amplification rate (%)” value is listed as 235%.
The same measure, in the same setting: the value for `CC1CC=C(c2ccc(=O)n(CC(=O)N3CCc4c(C5CN(C(C)C)C5)cccc43)n2)CC1` (centres unmarked) [Example 304] was 167%; that for `C[C@H]1CC[C@@H](c2ccc(=O)n(CC(=O)Nc3ccc(C#N)cc3)n2)CC1` [Example 44] was 59%.
Still for that read-out and setting: the value for `CC1CCN(c2ccc(=O)n(CC(=O)Nc3ccnc(C(F)(F)F)c3)n2)CC1` [Example 52] was 248%; that for `CC1CC=C(c2ccc(=O)n(CC(=O)Nc3ccnc(CO)c3)n2)CC1` (centres unmarked) [Example 370] was 35%.
Same read-out and setting: for `COc1ccc2c(c1)CCN2C(=O)Cn1nc(C2=CCC(C)(C)CC2)ccc1=O` [Example 430] the value was 28%; for `CC1CCN(c2ccc(=O)n(CC(=O)Nc3ccc(F)nc3)n2)CC1` [Example 58], 26%.
In the case of `COc1cncc(NC(=O)Cn2nc(N3CCC(C)CC3)ccc2=O)c1` [Example 64], the “Nav1.1 current amplification rate (%)” value is recorded as 11%.
On the same count and under the same terms, for `CC1CCC(c2ccc(=O)n(CC(=O)N3CCc4c(N5CCOCC5)cccc43)n2)CC1` (mixture of isomers) [Example 472] the value was 387%.
The same measure, in the same setting: the value for `CC1CC=C(c2ccc(=O)n(CC(=O)N3CCN(c4ccccn4)CC3)n2)CC1` (centres unmarked) [Example 394] was 98%.

Staying with this experiment, now noted: Concentration for evaluation 50 μM; HEK293 cell line stably expressing human Nav1.1.
On to `COCCCN1CC2(CCN(C(=O)Cn3nc(C4=CCC(C)CC4)ccc3=O)C2)C1` (centres unmarked) [Example 308], for which the “Nav1.1 current amplification rate (%)” value is given as 9%.
Regarding `COC1CN(Cc2cncc(NC(=O)Cn3nc(C4=CCC(C)CC4)ccc3=O)c2)C1` (centres unmarked) [Example 366], the “Nav1.1 current amplification rate (%)” value was determined as 37%.
On to `O=C(Cn1nc(C2=CCCC2)ccc1=O)Nc1ccn2ccnc2c1` [Example 457], for which the “Nav1.1 current amplification rate (%)” value is recorded as 29%.
Same read-out and setting: for `CC1CC=C(c2ccc(=O)n(CC(=O)N3CCN(C4CCOCC4)CC3)n2)CC1` (centres unmarked) [Example 411] the value was 18%.
`COc1cccc(F)c1-c1ncc2cnn(CC(=O)Nc3ccn4ncnc4c3)c2n1` [Example 791]: the “Nav1.1 current amplification rate (%)” value was 14%.
Still for that read-out and setting: for `CC1CC=C(c2ccc(=O)n(CC(=O)Nc3ccc4nncn4c3)n2)CC1` (centres unmarked) [Example 341] the value was 202%.

The experiment is the same for the next values; noted with them: HEK293, Concentration for evaluation 1 μM; HEK293 cell line stably expressing human Nav1.1; read-out: Nav1.1 current amplification rate (%).
In the case of `Cc1ccc(-c2cnc3cnn(CC(=O)N4CCN(c5cccnc5)CC4)c3n2)c(F)c1` [Example 742], the activation at 1 µM amounted to 32%.
Still for that read-out and setting: the value for `N#Cc1ccc(NC(=O)Cn2ncc3ncc(N4CCC5(CC5)C(F)(F)C4)nc32)nc1` [Example 757] was 10%.

The experiment is the same for the next values; noted with them: HEK293, Concentration for evaluation 10 μM; HEK293 cell line stably expressing human Nav1.1; read-out: Nav1.1 current amplification rate (%).
For `N#Cc1ccc(NC(=O)Cn2nc(N3CCCCC3)ccc2=O)cn1` [Example 110], the activation at 10 µM was 12%.

The experiment is the same for the next values; noted with them: concentration for evaluation 1 μM; HEK293 stably expressing human Nav1.1.
On to `CN(CC1CC1)c1ncc2cnn(CC(=O)Nc3ccn4ncnc4c3)c2n1` [Example 800], for which the “Nav1.1 current amplification rate (%)” value is listed as 55%.
On the same count and under the same terms, the value for `CN(c1ncc2cnn(CC(=O)Nc3ccn4ncnc4c3)c2n1)C1CCC1` [Example 797] was 66%; that for `O=C(Cn1ncc2ccc(-c3ccc(F)cc3)nc21)Nc1ccn2ccnc2c1` [Example 866] was 16%.
Still for that read-out and setting: for `CC1CCN(c2ccc3cnn(CC(=O)Nc4ccc5ocnc5c4)c3n2)CC1` [Example 876] the value was 98%; for `CN(CC1CC(F)(F)C1)c1ncc2cnn(CC(=O)Nc3ccn4ncnc4c3)c2n1` [Example 799], 35%; for `CC1CC=C(c2ncc3cnn(CC(=O)Nc4ccc5cncnc5c4)c3n2)CC1` (centres unmarked) [Example 805], 373%.
Consider `O=C(Cn1ncc2cnc(N3CCC4(CCC4)CC3)nc21)Nc1ccc2cncnc2c1` [Example 808], for which the “Nav1.1 current amplification rate (%)” value came out at 226%.
On to `CC1CCN(c2ccc3cnn(CC(=O)Nc4ccc5cnnn5c4)c3n2)CC1` [Example 878], for which the “Nav1.1 current amplification rate (%)” value is given as 42%.
As to `CC1(C)CCN(c2ccc3cnn(CC(=O)Nc4ccn5ncnc5c4)c3n2)C1` [Example 857], the “Nav1.1 current amplification rate (%)” value is recorded as 18%.
